The NIST ThermoML archive (doi:10.1021/acs.jced.9b00062)
± gives the expanded uncertainty stated by the source.

Legend:
[1] = for vapor or sublimation pressure: Closed cell (Static) method; for Normal melting temperature: DTA
[2] = Molar enthalpy of transition or fusion; settings: Crystal; DSC

COc1c(Br)cc(Br)cc1Br [2,4,6-tribromoanisole]
[1]
Settings | vapor or sublimation pressure [kPa]
330.66 K, Crystal | 0.00284 ± 0.00016
332.63 K, Crystal | 0.00349 ± 0.00018
334.5 K, Crystal | 0.0042 ± 0.0002
336.57 K, Metastable liquid | 0.00889 ± 0.00037
336.63 K, Crystal | 0.0051 ± 0.00023
338.58 K, Crystal | 0.00623 ± 0.00027
338.61 K, Metastable liquid | 0.01033 ± 0.00042
340.54 K, Crystal | 0.00747 ± 0.00031
340.57 K, Metastable liquid | 0.01173 ± 0.00047
342.54 K, Metastable liquid | 0.01369 ± 0.00053
342.55 K, Crystal | 0.00915 ± 0.00038
344.5 K, Crystal | 0.01086 ± 0.00044
344.5 K, Metastable liquid | 0.01549 ± 0.00055
346.47 K, Crystal | 0.01317 ± 0.00052
346.48 K, Metastable liquid | 0.01786 ± 0.00059
348.43 K, Crystal | 0.01563 ± 0.00056
348.5 K, Metastable liquid | 0.02061 ± 0.00063
350.42 K, Crystal | 0.01881 ± 0.00061
350.43 K, Metastable liquid | 0.02345 ± 0.00068
352.4 K, Crystal | 0.0224 ± 0.00066
352.41 K, Metastable liquid | 0.02697 ± 0.00073
354.32 K, Crystal | 0.0266 ± 0.00073
354.42 K, Metastable liquid | 0.03065 ± 0.00079
356.36 K, Metastable liquid | 0.03485 ± 0.00085
356.37 K, Crystal | 0.03175 ± 0.0008
358.31 K, Metastable liquid | 0.03946 ± 0.00092
360.25 K, Metastable liquid | 0.04472 ± 0.001
362.27 K, Liquid | 0.05049 ± 0.0011
364.24 K, Liquid | 0.05678 ± 0.0012
366.22 K, Liquid | 0.06459 ± 0.0013
368.15 K, Liquid | 0.07257 ± 0.0014
370.19 K, Liquid | 0.08197 ± 0.0016
372.11 K, Liquid | 0.09183 ± 0.0017
374.05 K, Liquid | 0.1023 ± 0.0019
376.07 K, Liquid | 0.1152 ± 0.0021
377.95 K, Liquid | 0.1277 ± 0.0023
379.95 K, Liquid | 0.1426 ± 0.0021
381.85 K, Liquid | 0.1595 ± 0.0023
383.82 K, Liquid | 0.177 ± 0.0024
385.79 K, Liquid | 0.1958 ± 0.0025
387.78 K, Liquid | 0.2203 ± 0.0027
389.79 K, Liquid | 0.2436 ± 0.0029
391.72 K, Liquid | 0.2676 ± 0.0031

Settings | Normal melting temperature [°C]
[1], Crystal | 86.29 ± 0.4

Settings | Molar enthalpy of transition or fusion [kcal/mol]
[2] | 5.71 ± 0.287

COc1c(Cl)cc(Cl)cc1Cl [2,4,6-trichloroanisole]
[1]
Settings | vapor or sublimation pressure [kPa]
297.11 K, Crystal | 0.00239 ± 0.00014
300.13 K, Crystal | 0.00337 ± 0.00017
303.1 K, Crystal | 0.00462 ± 0.00021
306.06 K, Crystal | 0.00649 ± 0.00028
309.01 K, Crystal | 0.00877 ± 0.00036
311.98 K, Crystal | 0.01199 ± 0.00048
315.2 K, Crystal | 0.01642 ± 0.00057
317.95 K, Crystal | 0.02189 ± 0.00065
319.65 K, Metastable liquid | 0.03551 ± 0.00086
320.87 K, Crystal | 0.02895 ± 0.00076
322.82 K, Metastable liquid | 0.04391 ± 0.00099
323.91 K, Crystal | 0.03921 ± 0.00092
325.77 K, Metastable liquid | 0.05384 ± 0.0011
326.89 K, Crystal | 0.05174 ± 0.0011
328.77 K, Metastable liquid | 0.06611 ± 0.0013
329.85 K, Crystal | 0.06647 ± 0.0013
331.73 K, Metastable liquid | 0.0803 ± 0.0015
334.71 K, Liquid | 0.09766 ± 0.0018
337.68 K, Liquid | 0.118 ± 0.0021
340.63 K, Liquid | 0.1424 ± 0.0021
343.63 K, Liquid | 0.1712 ± 0.0023
346.05 K, Liquid | 0.1971 ± 0.0025
348.6 K, Liquid | 0.2292 ± 0.0028
351.58 K, Liquid | 0.2724 ± 0.0032
354.51 K, Liquid | 0.3225 ± 0.0036
356.47 K, Liquid | 0.3593 ± 0.0039
359.37 K, Liquid | 0.4214 ± 0.0045
362.38 K, Liquid | 0.4943 ± 0.0051
365.32 K, Liquid | 0.5801 ± 0.0058
368.31 K, Liquid | 0.6729 ± 0.0066

Settings | Normal melting temperature [°C]
[1], Crystal | 59.32 ± 0.39

Settings | Molar enthalpy of transition or fusion [kcal/mol]
[2] | 5.35 ± 0.186
